Legend:
NLRP3 [1] = biological target: T1, NLRP3 (Homo sapiens, UniProt Q96P20); experiment: THP-1 cells pyroptosis assay (LPS + nigericin, resazurin readout); type: cell-based; parameters: Seed THP-1 cells (25,000cells/well) containing 1.0 μg/ml LPS; host or cells: THP-1 cells, LPS-primed, nigericin-stimulated; settings: 1.0 μg/ml LPS, compound 3 hours, nigericin 5 μM 1 hr
Experimental: THP-1 cells (ATCC #TIB-202) were grown in RPMI containing L-glutamine (Gibco #11835) supplemented with 1 mM sodium pyruvate (Sigma #S8636) and penicillin (100 units/ml)/streptomycin (0.1 mg/ml) (Sigma #P4333) in 10% Fetal Bovine Serum (FBS) (Sigma #F0804). The cells were routinely passaged and grown to confluency (˜10^6cells/ml). On the day of the experiment, THP-1 cells were harvested and resuspended into RPMI medium (without FBS). The cells were then counted and viability (>90%) checked by Trypan blue (Sigma #T8154). Appropriate dilutions were made to give a concentration of 625,000cells/ml. To this diluted cell solution was added LPS (Sigma #L4524) to give a lug/ml Final Assay Concentration (FAC). 40 μl of the final preparation was aliquoted into each well of a 96-well plate. The plate thus prepared was used for compound screening.
The following method step-by-step assay was followed for compound screening. • 1. Seed THP-1 cells (25,000cells/well) containing 1.0 μg/ml LPS in 40 μl of RPMI medium (without FBS) in 96-well, black walled, clear bottom cell culture plates coated with poly-D-lysine (VWR #734-0317) • 2. Add 5 μl compound (8 points half-log dilution, with 10 μM top dose) or vehicle (DMSO 0.1% FAC) to the appropriate wells • 3. Incubate for 3 hours at 37° C., 5% CO2 • 4. Add 5 μl nigericin (Sigma #N7143) (FAC 5 μM) to all wells • 5. Incubate for 1 hr at 37° C., 5% CO2 • 6. At the end of the incubation period, spin plates at 300×g for 3 mins and remove supernatant • 7. Then add 50 μl of resazurin (Sigma #R^7017) (FAC 100 μM resazurin in RPMI medium without FBS) and incubate plates for a further 1-2 hours at 37° C. and 5% CO2 • 8. Plates were read in an Envision reader at Ex 560 nm and Em 590 nm • 9. IC50 data is fitted to a non-linear regression equation (log inhibitor vs response-variable slope 4-parameters)

NLRP3 [2] = biological target: T1, NLRP3; experiment: Human whole blood IL-1β release assay (LPS + nigericin, AlphaLisa); type: cell-based; parameters: Human whole blood in Li-heparin tubes was obtained from healthy donors; from tissue; host or cells: human whole blood from healthy donors, LPS-primed, nigericin-stimulated; settings: 1 ug/ml LPS, compound 3 hours, nigericin 10 μM 1 hr, IL-1β in supernatant
Experimental: For systemic delivery, the ability to inhibit NLRP3 when the compounds are present within the bloodstream is of great importance. For this reason, the NLRP3 inhibitory activity of a number of compounds in human whole blood was investigated in accordance with the following protocol.
Human whole blood in Li-heparin tubes was obtained from healthy donors from a volunteer donor panel. • 1. Plate out 80 μl of whole blood containing lug/ml of LPS in 96-well, clear bottom cell culture plate (Corning #3585) • 2. Add 10 μl compound (8 points half-log dilution with 10 μM top dose) or vehicle (DMSO 0.1% FAC) to the appropriate wells • 3. Incubate for 3 hours at 37° C., 5% CO2 • 4. Add 10 μl nigericin (Sigma #N7143) (10 μM FAC) to all wells • 5. Incubate for 1 hr at 37° C., 5% CO2 • 6. At the end of the incubation period, spin plates at 300×g for 5 mins to pellet cells and remove 20 μl of supernatant and add to 96-well v-bottom plates for IL-1β analysis (note: these plates containing the supernatants can be stored at −80° C. to be analysed at a later date) • 7. IL-1β was measured according to the manufacturer protocol (Perkin Elmer-AlphaLisa IL-1 Kit AL220F-5000) • 8. IC50 data is fitted to a non-linear regression equation (log inhibitor vs response-variable slope 4-parameters)

T1 sequence (Q96P20 whole entry): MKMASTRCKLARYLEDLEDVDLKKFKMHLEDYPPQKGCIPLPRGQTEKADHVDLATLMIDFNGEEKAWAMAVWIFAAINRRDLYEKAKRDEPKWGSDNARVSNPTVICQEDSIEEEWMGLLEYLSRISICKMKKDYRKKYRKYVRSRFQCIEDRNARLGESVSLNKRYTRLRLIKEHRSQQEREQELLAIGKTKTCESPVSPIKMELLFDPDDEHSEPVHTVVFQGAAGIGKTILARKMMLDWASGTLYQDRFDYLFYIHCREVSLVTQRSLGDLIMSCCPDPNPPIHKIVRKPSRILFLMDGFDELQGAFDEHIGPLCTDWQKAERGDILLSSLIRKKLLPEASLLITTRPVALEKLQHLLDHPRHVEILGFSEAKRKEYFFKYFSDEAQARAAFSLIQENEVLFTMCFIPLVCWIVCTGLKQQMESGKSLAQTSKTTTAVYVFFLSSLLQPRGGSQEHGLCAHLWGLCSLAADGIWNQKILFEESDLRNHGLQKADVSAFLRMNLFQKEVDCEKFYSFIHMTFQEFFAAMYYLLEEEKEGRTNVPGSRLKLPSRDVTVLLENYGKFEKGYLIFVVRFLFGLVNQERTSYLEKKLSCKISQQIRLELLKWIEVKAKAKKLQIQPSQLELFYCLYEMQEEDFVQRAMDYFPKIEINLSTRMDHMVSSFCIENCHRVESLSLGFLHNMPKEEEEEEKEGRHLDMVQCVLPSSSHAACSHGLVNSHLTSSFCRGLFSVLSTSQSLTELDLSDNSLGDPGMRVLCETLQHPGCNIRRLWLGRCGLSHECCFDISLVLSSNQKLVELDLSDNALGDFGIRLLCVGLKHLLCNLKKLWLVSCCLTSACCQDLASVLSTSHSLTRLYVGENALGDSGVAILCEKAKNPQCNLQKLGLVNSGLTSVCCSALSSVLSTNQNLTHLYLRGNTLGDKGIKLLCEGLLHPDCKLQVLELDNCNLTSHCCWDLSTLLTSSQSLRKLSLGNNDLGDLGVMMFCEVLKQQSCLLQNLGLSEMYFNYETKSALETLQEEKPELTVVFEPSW

| Compound | IC50 (NLRP3 [1]) [nM] | IC50 (NLRP3 [2]) [nM] |
| --- | --- | --- |
| Cc1nc(N2CC[C@@H]3CCN(C)C[C@@H]32)nnc1-c1ccc(C#N)cc1O (single isomer, unassigned) [Example 4A, 4-[3-[(3aS,7aR)-6-Methyl-3,3a,4,5,7,7a-hexahydro-2H-pyrrolo[2,3-c]pyridin-1-yl]-5-methyl-1,2,4-triazin-6-yl]-3-hydroxy-benzonitrile or 4-[3-[(3aR,7aS)-6-methyl-3,3a,4,5,7,7a-hexahydro-2H-pyrrolo[2,3-c]pyridin-1-yl]-5-methyl-1,2,4-triazin-6-yl]-3-hydroxy-benzonitrile] | 47.4 | 41 |
| CCN1CCC2CCN(c3nnc(-c4ccc5c(c4O)CCO5)c(C)n3)C2C1 (single isomer, unassigned) [Example 1B, 5-[3-[(3aR,7aS)-6-Ethyl-3,3a,4,5,7,7a-hexahydro-2H-pyrrolo[2,3-c]pyridin-1-yl]-5-methyl-1,2,4-triazin-6-yl]-2,3-dihydrobenzofuran-4-ol or 5-[3-[(3aS,7aR)-6-ethyl-3,3a,4,5,7,7a-hexahydro-2H-pyrrolo[2,3-c]pyridin-1-yl]-5-methyl-1,2,4-triazin-6-yl]-2,3-dihydrobenzofuran-4-ol] | 64.4 | 375 |
| CCN1CC[C@H]2CCN(c3nnc(-c4ccc(C#N)cc4O)c(C)n3)[C@H]2C1 (single isomer, unassigned) [Example 2A, 4-[3-[(3aS,7aR)-6-Ethyl-3,3a,4,5,7,7a-hexahydro-2H-pyrrolo[2,3-c]pyridin-1-yl]-5-methyl-1,2,4-triazin-6-yl]-3-hydroxy-benzonitrile or 4-[3-[(3aR,7aS)-6-ethyl-3,3a,4,5,7,7a-hexahydro-2H-pyrrolo[2,3-c]pyridin-1-yl]-5-methyl-1,2,4-triazin-6-yl]-3-hydroxy-benzonitrile] | 36.4 | 38 |
| CCN1CCC2CCN(c3nnc(-c4ccc(C#N)cc4O)c(C)n3)C2C1 (single isomer, unassigned) [Example 2B, 4-[3-[(3aR,7aS)-6-Ethyl-3,3a,4,5,7,7a-hexahydro-2H-pyrrolo[2,3-c]pyridin-1-yl]-5-methyl-1,2,4-triazin-6-yl]-3-hydroxy-benzonitrile or 4-[3-[(3aS,7aR)-6-ethyl-3,3a,4,5,7,7a-hexahydro-2H-pyrrolo[2,3-c]pyridin-1-yl]-5-methyl-1,2,4-triazin-6-yl]-3-hydroxy-benzonitrile] | > 1000 |  |
| CCN1CCC2CCN(c3nnc(-c4ccc5c(c4O)CCO5)c(C)n3)C2C1 (single isomer, unassigned) [Example 1A, 5-[3-[(3aS,7aR)-6-Ethyl-3,3a,4,5,7,7a-hexahydro-2H-pyrrolo[2,3-c]pyridin-1-yl]-5-methyl-1,2,4-triazin-6-yl]-2,3-dihydrobenzofuran-4-ol or 5-[3-[(3aR,7aS)-6-ethyl-3,3a,4,5,7,7a-hexahydro-2H-pyrrolo[2,3-c]pyridin-1-yl]-5-methyl-1,2,4-triazin-6-yl]-2,3-dihydrobenzofuran-4-ol] | 1.8 | 12 |

The next lines start with the values.

| IC50 (NLRP3 [1]) [nM] | IC50 (NLRP3 [2]) [nM] | Compound |
| --- | --- | --- |
| > 1000 |  | Cc1nc(N2CCC3CCN(C)CC32)nnc1-c1ccc(C#N)cc1O (single isomer, unassigned) [Example 4B, 4-[3-[(3aR,7aS)-6-Methyl-3,3a,4,5,7,7a-hexahydro-2H-pyrrolo[2,3-c]pyridin-1-yl]-5-methyl-1,2,4-triazin-6-yl]-3-hydroxy-benzonitrile or 4-[3-[(3aS,7aR)-6-methyl-3,3a,4,5,7,7a-hexahydro-2H-pyrrolo[2,3-c]pyridin-1-yl]-5-methyl-1,2,4-triazin-6-yl]-3-hydroxy-benzonitrile] |
| 1.9 | 7 | Cc1nc(N2CC[C@@H]3CCN(C)C[C@@H]32)nnc1-c1ccc2c(c1O)CCO2 (single isomer, unassigned) [Example 3A, 5-[3-[(3aS,7aR)-6-Methyl-3,3a,4,5,7,7a-hexahydro-2H-pyrrolo[2,3-c]pyridin-1-yl]-5-methyl-1,2,4-triazin-6-yl]-2,3-dihydrobenzofuran-4-ol or 5-[3-[(3aR,7aS)-6-methyl-3,3a,4,5,7,7a-hexahydro-2H-pyrrolo[2,3-c]pyridin-1-yl]-5-methyl-1,2,4-triazin-6-yl]-2,3-dihydrobenzofuran-4-ol] |
| 52.2 | 115 | Cc1nc(N2CCC3CCN(C)CC32)nnc1-c1ccc2c(c1O)CCO2 (single isomer, unassigned) [Example 3B, 5-[3-[(3aR,7aS)-6-Methyl-3,3a,4,5,7,7a-hexahydro-2H-pyrrolo[2,3-c]pyridin-1-yl]-5-methyl-1,2,4-triazin-6-yl]-2,3-dihydrobenzofuran-4-ol or 5-[3-[(3aS,7aR)-6-methyl-3,3a,4,5,7,7a-hexahydro-2H-pyrrolo[2,3-c]pyridin-1-yl]-5-methyl-1,2,4-triazin-6-yl]-2,3-dihydrobenzofuran-4-ol] |

— US20260015353A1, “NOVEL COMPOUNDS” (Hoffmann-La Roche Inc., priority 2022, published 2026)
